Reference: US20110117081A1, “FUNCTIONALIZED PYRROLIDINES AND USE THEREOF AS IAP INHIBITORS” (priority 2008, published 2011)

Key:
[1] = system: Colorectal carcinoma HCT116 cells; test: HCT116 + ETR1 cell viability assay (MTT); format: cell-based; conditions: with ETR1 (40 ng/ml), 72 hrs
Experimental: Colorectal carcinoma HCT116 cells (ATCC# CCL-247) were cultured as monolayers in 96 well plates at a density of 2000 cells per well in 100 ul of McCoy's 5a medium (HyClone) supplemented with 2.2 g/L sodium bicarbonate (Gibco), 10% FBS (HyClone) and 1% penecillin/streptomycin (HyClone) for 24 hours. Triplicate wells of cells were treated for 72 hrs at 37° C. (5% CO2) with 50 ul of HGS agonistic Trail receptor antibody, ETR1 (40 ng/ml) in combination with 50 ul of diluted compound (0.01 to 10000 nM). Metabolic viability of remaining cells was assessed by MTT assay.
(§1) The percentage viability of compound-treated cells was expressed as a fraction of the absorbance/luminescence signal obtained from non-treated cells. EC50 values (corresponding to 50% cell survival in the presence of compound as compared to untreated controls) were calculated from MTT survival curves (HCT116 and SKOV3) using BioAssay software (CambridgeSoft) and from Cell Titer-Glo survival curves (synovioycte and Jurkat cells) using GraphPad Prism (Graph Pad Software Inc.). In the below chart, EC50 values are summarized as follows: a=EC50 of less than 10 nM; b=EC50 of 10-100 nM; and c=EC50 of greater than 100 nM.

[2] = system: Ovarian adenocarcinoma SKOV3 cells; test: SKOV3 cell viability assay (MTT); format: cell-based; conditions: Homo sapiens, SK-OV-3, 72 hours
Experimental: Ovarian adenocarcinoma SKOV3 cells (ATCC# HTB-77) were cultured as monolayers in McCoy's 5a medium (HyClone) supplemented with 2.2 g/L sodium bicarbonate (Gibco), 10% FBS (HyClone) and 1% penicillin/streptomycin (HyClone). Cells were seeded in tissue culture-treated 96 well plates at 5000 cells/well in 150 ul of media. After 24 hours, triplicate wells of cells were treated with various concentrations of compound (0.01 to 10000 nM) diluted in 50 ul of culture media. Cells were incubated at 37° C. (5% CO2) in the presence of compound for 72 hours. Metabolic viability of remaining cells was assessed by MTT (thiazolyl blue tetrazolium bromide, Sigma) assay. 20 ul of MTT reagent (10 mg/ml) was added per well and plates were incubated for 4 hours at 37° C. (5% CO2). The supernatant was then removed from the plate. The converted MTT product was solubilized with 100 uL of isopropanol and the absorbance was read at 570 nm using a Tecan spectrophotometer.
as §1

[3] = system: Rheumatoid arthritis human fibroblast-like synoviocytes (HFLS-RA); test: Human synoviocytes + Fas antibody cell viability assay (Cell Titer-Glo); format: cell-based; conditions: with anti-human CD95 (Fas) antibody (300 ng/ml), 72 hrs, read-out: EC50 synoviocyctes + FAS
Experimental: Rheumatoid arthritis human fibroblast-like synoviocytes (HFLS-RA, Cell Applications Inc.) were seeded in 96-well plates at 3000 cells per well in 100 ul of complete synoviocyte growth medium (Cell Applications Inc.) one day prior to treatment. Triplicate wells of cells were treated by the addition of 50 ul of diluted compound (0.01 to 100 nM) in combination with 50 ul of anti-human CD95 (Fas) antibody (300 ng/ml; clone CH-11, Beckman Coulter/Immunotech) and incubated at 37° C. (5% CO2) for 72 hrs. Cell viability was measured by Cell Titer-Glo Luminescent Assay (Promega). Briefly, 100 ul of media was removed from wells and an equal volume of Cell Titer-Glo Reagent was added to the cells. The plates were mixed for 2 minutes on an orbital shaker and after a 10-minute incubation period at room temperature, the emitted luminescence was detected using a Tecan Infinite F200 spectrophotometer.
as §1

HCT-116 xenograft = test: Tumor suppressive effect in combination with ETR1, HCT-116 xenograft model; format: in vivo; conditions: 1 mg/kg IV, 5 on/2off; with Mapatumamab 10 mg/kg IP twice weekly; after 3 weeks of treatment; CD-1 nude mice
Experimental: Tumor Suppressive Effect of Compound in Combination with ETR1 using an HCT-116 Xenograft Model
(§2) Female, CD-1, nude mice received 1.5×10^6 HCT-116 cells (in 100 uL of serum-free media) subcutaneously at the right flank. When average tumor size reached ˜150 mm^3 groups were formed using a balanced design based on tumor size, and treatment commenced. Tumor bearing mice were treated with either vehicle (5% D5W; 5 mL/kg, IV) or compound (1 mg/kg, IV) using a 5 on/2off treatment schedule. Mapatumamab (10 mg/kg, IP) was given twice weekly for the duration of the experiment, commencing one day after IAP inhibitory compounds.

H460 xenograft = test: Tumor suppressive effect in combination with Taxotere, H460 xenograft model; format: in vivo; conditions: 1 mg/kg IV, 5 on/2off; with Taxotere 30 mg/kg IP; after 3 weeks of treatment; CD-1 nude mice
Experimental: Tumor Suppressive Effect of Compound in Combination with Taxotere using an H460 Xenograft Model
as §2, with “1×10^6 H460” for “1.5×10^6 HCT-116”, “˜100” for “˜150”, “Taxotere (30” for “Mapatumamab (10”, “twice, one week apart” for “twice weekly for the duration of the experiment,”

| Structure (SMILES) | EC50 [1] [nM] | EC50 [2] [nM] | EC50 [3] [nM] | tumor growth suppression relative to vehicle treated controls (HCT-116 xenograft) [%] | tumor growth suppression relative to vehicle treated controls (H460 xenograft) [%] |
| --- | --- | --- | --- | --- | --- |
| CN[C@@H](C)C(=O)N[C@H](C(=O)N1C[C@@H](NC(=O)c2ccc(C(=O)N[C@H]3C[C@@H](C(=O)N[C@@H]4CCCc5ccccc54)N(C(=O)[C@@H](NC(=O)[C@H](C)NC)C4CCCCC4)C3)cc2)C[C@H]1C(=O)N[C@@H]1CCCc2ccccc21)C1CCCCC1 [Compound 1] | < 10 | < 10 | < 10 | 59 | 54 |
| CN[C@@H](C)C(=O)N[C@H](C(=O)N1C[C@@H](NC(=O)C2CCC(C(=O)N[C@H]3C[C@@H](C(=O)N[C@@H]4CCc5ccccc54)N(C(=O)[C@@H](NC(=O)[C@H](C)NC)C4CCCCC4)C3)CC2)C[C@H]1C(=O)N[C@@H]1CCc2ccccc21)C1CCCCC1 (some centres unmarked) [Compound 3] | < 10 | < 10 | < 10 |  |  |
| CN[C@@H](C)C(=O)N[C@H](C(=O)N1C[C@@H](NC(=O)c2ccc(C(=O)N[C@H]3C[C@@H](C(=O)N[C@H](C)c4ccc(F)cc4)N(C(=O)[C@@H](NC(=O)[C@H](C)NC)C4CCCCC4)C3)cc2)CC1C(=O)N[C@H](C)c1ccc(F)cc1)C1CCCCC1 (some centres unmarked) [Compound 26] | < 10 | < 10 |  |  |  |
| CN[C@@H](C)C(=O)N[C@H](C(=O)N1C[C@@H](NC(=O)c2ccc(-c3ccc(C(=O)N[C@H]4C[C@@H](C(=O)N[C@H](COCc5ccccc5)c5ccccc5)N(C(=O)[C@@H](NC(=O)[C@H](C)NC)C5CCCCC5)C4)cc3)cc2)C[C@H]1C(=O)N[C@H](COCc1ccccc1)c1ccccc1)C1CCCCC1 [Compound 27] | < 10 | 10 to 100 |  |  |  |
| CN[C@@H](C)C(=O)N[C@H](C(=O)N1C[C@@H](NC(=O)c2ccc(C(=O)N[C@H]3C[C@@H](C(=O)N4CCCC[C@@H]4c4ccccc4)N(C(=O)[C@@H](NC(=O)[C@H](C)NC)C4CCCCC4)C3)cc2)CC1C(=O)N1CCCC[C@@H]1c1ccccc1)C1CCCCC1 (some centres unmarked) [Compound 28] | 10 to 100 | 10 to 100 |  |  |  |
| CN[C@@H](C)C(=O)N[C@H](C(=O)N1C[C@@H](NC(=O)c2ccc(C(=O)N[C@H]3C[C@@H](C(=O)N4CCC[C@@H]4c4ccccc4)N(C(=O)[C@@H](NC(=O)[C@H](C)NC)C4CCCCC4)C3)cc2)C[C@H]1C(=O)N1CCC[C@@H]1c1ccccc1)C1CCCCC1 [Compound 30] | > 100 | > 100 |  |  |  |
| CN[C@@H](C)C(=O)N[C@H](C(=O)N1C[C@@H](NC(=O)c2ccc(C(=O)N[C@H]3C[C@@H](C(=O)N[C@@H]4CCOc5ccccc54)N(C(=O)[C@@H](NC(=O)[C@H](C)NC)C4CCCCC4)C3)cc2)C[C@H]1C(=O)N[C@@H]1CCOc2ccccc21)C1CCCCC1 [Compound 31] | < 10 | < 10 |  |  |  |

Continued, in another order:

| EC50 [1] [nM] | EC50 [2] [nM] | Structure (SMILES) | EC50 [3] [nM] | tumor growth suppression relative to vehicle treated controls (HCT-116 xenograft) [%] | tumor growth suppression relative to vehicle treated controls (H460 xenograft) [%] |
| --- | --- | --- | --- | --- | --- |
| < 10 | < 10 | CN[C@@H](C)C(=O)N[C@H](C(=O)N1C[C@@H](NC(=O)C2CCC(C(=O)N[C@H]3C[C@@H](C(=O)NC(c4ccccc4)c4ccccc4)N(C(=O)[C@@H](NC(=O)[C@H](C)NC)C4CCCCC4)C3)CC2)C[C@H]1C(=O)NC(c1ccccc1)c1ccccc1)C1CCCCC1 (some centres unmarked) [Compound 7] | < 10 |  |  |
| < 10 | < 10 | CN[C@@H](C)C(=O)N[C@H](C(=O)N1C[C@@H](NC(=O)c2ccc(C(=O)N[C@H]3C[C@@H](C(=O)NCc4ccccc4)N(C(=O)[C@@H](NC(=O)[C@H](C)NC)C4CCCCC4)C3)cc2)C[C@H]1C(=O)NCc1ccccc1)C1CCCCC1 [Compound 29] |  |  |  |
| < 10 | < 10 | CN[C@@H](C)C(=O)N[C@H](C(=O)N1C[C@@H](NC(=O)C2CCC(C(=O)N[C@H]3C[C@@H](C(=O)N[C@@H]4CCOc5ccccc54)N(C(=O)[C@@H](NC(=O)[C@H](C)NC)C4CCCCC4)C3)CC2)C[C@H]1C(=O)N[C@@H]1CCOc2ccccc21)C1CCCCC1 (some centres unmarked) [Compound 32] |  |  |  |
| 10 to 100 |  | CN[C@@H](C)C(=O)N[C@H](C(=O)N1C[C@@H](NC(=O)c2ccc(C(=O)N[C@H]3C[C@@H](C(=O)N4CC[C@@H](c5ccccc5)C4)N(C(=O)[C@@H](NC(=O)[C@H](C)NC)C4CCCCC4)C3)cc2)C[C@H]1C(=O)N1CC[C@@H](c2ccccc2)C1)C1CCCCC1 [Compound 41] | 10 to 100 |  |  |
| < 10 |  | CC[C@H](NC)C(=O)N[C@H](C(=O)N1C[C@@H](NC(=O)c2ccc(C(=O)N[C@H]3C[C@@H](C(=O)N[C@@H]4CCCc5ccccc54)N(C(=O)[C@@H](NC(=O)[C@H](CC)NC)C4CCCCC4)C3)cc2)C[C@H]1C(=O)N[C@@H]1CCCc2ccccc21)C1CCCCC1 [Compound 51] | < 10 |  |  |
